Laboratory results reported in PubChem BioAssay AID1963446 (Molecular Pharmacology Branch, DTP, NCI, 2024).
Where “and” joins values, the source holds several entries; their conditions need not be identical. Identical values can stand only once.

System: 993429-296-R-J1-PDC complex spheroid growth, percent test/control
Assay: Anticancer human tumor 993429-296-R-J1-PDC patient-derived uterine sarcoma cell line growth inhibition [Asc]
Conditions: for viability, T/C: stronger effect = lower value; active = viability on the fitted dose curve at most 10% of control; inactive = the rest
Summary of the method: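 Spheroid model: tumor line + HUVEC + hMSC. Single agents and combinations; top conc. at/near clinical Cmax (10 microM if undetermined), half-log dilutions. DMSO stocks at 800-fold test concentration.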

[1] = curve of first compound, second compound 0.1 µM
[2] = curve of first compound, second compound 0.316 µM
[3] = curve of first compound, second compound 1 µM
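Note: spheroids exposed to compounds for seven days.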

Cc1nc(N2CCC3(CC2)COC(C)C3N)c(CO)nc1Sc1ccnc(N)c1Cl (stereo not given) + CCN1C(C(=O)NC23CCC(C(=O)O)(CC2)CC3)C(c2cccc(Cl)c2F)C2(C(=O)Nc3cc(Cl)ccc32)C12CCCCC2
144 nM: IC50 (curve of first compound, second compound 0.949 µM)
inactive: viability, T/C (second compound 0.03 µM, first compound 0.00949 µM) 89.3% | viability, T/C (second compound 0.03 µM, first compound 0.03 µM) 86.2% | viability, T/C (second compound 0.03 µM, first compound 0.0949 µM) 68.7% | viability, T/C (second compound 0.03 µM, first compound 0.3 µM) 41.5% | viability, T/C (second compound 0.03 µM, first compound 0.949 µM) 33.3% | viability, T/C (second compound 0.03 µM, first compound 3 µM) 29.6% | viability, T/C (second compound 0.0949 µM, first compound 0.00949 µM) 92.5% | viability, T/C (second compound 0.0949 µM, first compound 0.03 µM) 71.7% | viability, T/C (second compound 0.0949 µM, first compound 0.0949 µM) 65.2% | viability, T/C (second compound 0.0949 µM, first compound 0.3 µM) 35.3% | viability, T/C (second compound 0.0949 µM, first compound 0.949 µM) 30.2% | viability, T/C (second compound 0.0949 µM, first compound 3 µM) 29.2% | viability, T/C (second compound 0.3 µM, first compound 0.00949 µM) 87.7% | viability, T/C (second compound 0.3 µM, first compound 0.03 µM) 79.8% | viability, T/C (second compound 0.3 µM, first compound 0.0949 µM) 59% | viability, T/C (second compound 0.3 µM, first compound 0.3 µM) 42.6% | viability, T/C (second compound 0.3 µM, first compound 0.949 µM) 29.2% | viability, T/C (second compound 0.3 µM, first compound 3 µM) 26.8% | viability, T/C (second compound 0.949 µM, first compound 0.00949 µM) 86.7% | viability, T/C (second compound 0.949 µM, first compound 0.03 µM) 68.5% | viability, T/C (second compound 0.949 µM, first compound 0.0949 µM) 55.9% | viability, T/C (second compound 0.949 µM, first compound 0.3 µM) 43.1% | viability, T/C (second compound 0.949 µM, first compound 0.949 µM) 27.6% | viability, T/C (second compound 0.949 µM, first compound 3 µM) 22.9% | viability, T/C (second compound 3 µM, first compound 0.00949 µM) 75.2% | viability, T/C (second compound 3 µM, first compound 0.03 µM) 69.9% | viability, T/C (second compound 3 µM, first compound 0.0949 µM) 50.1% | viability, T/C (second compound 3 µM, first compound 0.3 µM) 34% | viability, T/C (second compound 3 µM, first compound 0.949 µM) 28.8% | viability, T/C (second compound 3 µM, first compound 3 µM) 21.6%
159 nM: IC50 (curve of first compound, second compound 0.0949 µM)
104 nM: IC50 (curve of first compound, second compound 3 µM)
211 nM: IC50 (curve of first compound, second compound 0.03 µM)
176 nM: IC50 (curve of first compound, second compound 0.3 µM)

C#Cc1c(F)ccc2cc(O)cc(-c3ncc4c(N5CC6CCC(C5)N6)nc(OCC56CCCN5CC(F)C6)nc4c3F)c12 (stereo not given) + CNC(C)C(=O)NC1CN(S(=O)(=O)c2cccc(S(=O)(=O)N3CCC4CCC(C(=O)NC(c5ccccc5)c5ccccc5)N4C(=O)C(NC(=O)C(C)NC)C3)c2)CCC2CCC(C(=O)NC(c3ccccc3)c3ccccc3)N2C1=O
2630 nM: IC50 [1]
< 31.6 nM: IC50 [3]
inactive: viability, T/C (second compound 0.01 µM, first compound 0.0316 µM) 71.7% | viability, T/C (second compound 0.01 µM, first compound 0.1 µM) 67.2% | viability, T/C (second compound 0.01 µM, first compound 0.316 µM) 69.5% | viability, T/C (second compound 0.01 µM, first compound 1 µM) 57.3% | viability, T/C (second compound 0.01 µM, first compound 3.16 µM) 64.3% | viability, T/C (second compound 0.01 µM, first compound 10 µM) 25.6% | viability, T/C (second compound 0.0316 µM, first compound 0.0316 µM) 58.8% | viability, T/C (second compound 0.0316 µM, first compound 0.1 µM) 66.6% | viability, T/C (second compound 0.0316 µM, first compound 0.316 µM) 56.5% | viability, T/C (second compound 0.0316 µM, first compound 1 µM) 67.4% | viability, T/C (second compound 0.0316 µM, first compound 3.16 µM) 60.5% | viability, T/C (second compound 0.0316 µM, first compound 10 µM) 28% | viability, T/C (second compound 0.1 µM, first compound 0.0316 µM) 61% | viability, T/C (second compound 0.1 µM, first compound 0.1 µM) 62.1% | viability, T/C (second compound 0.1 µM, first compound 0.316 µM) 67.1% | viability, T/C (second compound 0.1 µM, first compound 1 µM) 61.7% | viability, T/C (second compound 0.1 µM, first compound 3.16 µM) 47.7% | viability, T/C (second compound 0.1 µM, first compound 10 µM) 28.4% | viability, T/C (second compound 0.316 µM, first compound 0.0316 µM) 45.2% | viability, T/C (second compound 0.316 µM, first compound 0.1 µM) 55.8% | viability, T/C (second compound 0.316 µM, first compound 0.316 µM) 43.3% | viability, T/C (second compound 0.316 µM, first compound 1 µM) 48.8% | viability, T/C (second compound 0.316 µM, first compound 3.16 µM) 64.7% | viability, T/C (second compound 0.316 µM, first compound 10 µM) 16.3% | viability, T/C (second compound 1 µM, first compound 0.0316 µM) 49.9% | viability, T/C (second compound 1 µM, first compound 0.1 µM) 50.2% | viability, T/C (second compound 1 µM, first compound 0.316 µM) 39.5% | viability, T/C (second compound 1 µM, first compound 1 µM) 58% | viability, T/C (second compound 1 µM, first compound 3.16 µM) 50.2% | viability, T/C (second compound 1 µM, first compound 10 µM) 25%
4700 nM: IC50 (curve of first compound, second compound 0.01 µM)
3310 nM: IC50 [2]
4620 nM: IC50 (curve of first compound, second compound 0.0316 µM)

O=C(c1ccc(F)c(F)c1Nc1ccc(I)cc1F)N1CC(O)([C@@H]2CCCCN2)C1
active: viability, T/C (compound 1 µM) 1.26% and 1.77% and 3.59%
61.4 nM and 42.6 nM and 212 nM: IC50 (curve of compound)
inactive: viability, T/C (compound 0.00316 µM) 94.3% and 75.1% and 94.5% | viability, T/C (compound 0.01 µM) 86% and 69.7% and 83.4% | viability, T/C (compound 0.0316 µM) 62.6% and 54.8% and 79.4% | viability, T/C (compound 0.1 µM) 41% and 34.7% and 70.9% | viability, T/C (compound 0.316 µM) 14.8% and 10.7% and 39.1%

CNC(C)C(=O)NC1CN(S(=O)(=O)c2cccc(S(=O)(=O)N3CCC4CCC(C(=O)NC(c5ccccc5)c5ccccc5)N4C(=O)C(NC(=O)C(C)NC)C3)c2)CCC2CCC(C(=O)NC(c3ccccc3)c3ccccc3)N2C1=O (stereo not given)
> 1000 nM: IC50 (curve of compound)
inactive: viability, T/C (compound 0.00316 µM) 80% and 76.5% | viability, T/C (compound 0.01 µM) 68.6% [middle of 15 runs] | viability, T/C (compound 0.0316 µM) 62.4% [middle of 15 runs] | viability, T/C (compound 0.1 µM) 55.9% [middle of 15 runs] | viability, T/C (compound 1 µM) 50.4% [middle of 15 runs]

CCN1C(C(=O)NC23CCC(C(=O)O)(CC2)CC3)C(c2cccc(Cl)c2F)C2(C(=O)Nc3cc(Cl)ccc32)C12CCCCC2 (stereo not given) + Cc1c(S(C)(=O)=O)c(-c2cc(F)cc(N3CCN(c4ccc(NS(=O)(=O)c5ccc(NC(CCN6CCC(C(=O)OCCCP(=O)(O)O)CC6)CSc6ccccc6)c(S(=O)(=O)C(F)(F)F)c5)cc4)CC3)c2)c(-c2ccc(Cl)cc2)n1C(C)C
< 9.49 nM: IC50 (curve of first compound, second compound 3.16 µM)
inactive: viability, T/C (second compound 0.1 µM, first compound 0.00949 µM) 88.1% | viability, T/C (second compound 0.1 µM, first compound 0.03 µM) 76.6% | viability, T/C (second compound 0.1 µM, first compound 0.0949 µM) 94.8% | viability, T/C (second compound 0.1 µM, first compound 0.3 µM) 66.4% | viability, T/C (second compound 0.1 µM, first compound 0.949 µM) 62.8% | viability, T/C (second compound 0.1 µM, first compound 3 µM) 58.5% | viability, T/C (second compound 0.316 µM, first compound 0.00949 µM) 63.1% | viability, T/C (second compound 0.316 µM, first compound 0.03 µM) 68.6% | viability, T/C (second compound 0.316 µM, first compound 0.0949 µM) 68.4% | viability, T/C (second compound 0.316 µM, first compound 0.3 µM) 55.5% | viability, T/C (second compound 0.316 µM, first compound 0.949 µM) 54.8% | viability, T/C (second compound 0.316 µM, first compound 3 µM) 39.9% | viability, T/C (second compound 1 µM, first compound 0.00949 µM) 57.6% | viability, T/C (second compound 1 µM, first compound 0.03 µM) 50.8% | viability, T/C (second compound 1 µM, first compound 0.0949 µM) 50.7% | viability, T/C (second compound 1 µM, first compound 0.3 µM) 61.4% | viability, T/C (second compound 1 µM, first compound 0.949 µM) 48% | viability, T/C (second compound 1 µM, first compound 3 µM) 28.4% | viability, T/C (second compound 3.16 µM, first compound 0.00949 µM) 47.1% | viability, T/C (second compound 3.16 µM, first compound 0.03 µM) 51.9% | viability, T/C (second compound 3.16 µM, first compound 0.0949 µM) 43.1% | viability, T/C (second compound 3.16 µM, first compound 0.3 µM) 44.4% | viability, T/C (second compound 3.16 µM, first compound 0.949 µM) 30.8% | viability, T/C (second compound 3.16 µM, first compound 3 µM) 22.3% | viability, T/C (second compound 10 µM, first compound 0.00949 µM) 81.3% | viability, T/C (second compound 10 µM, first compound 0.03 µM) 91.9% | viability, T/C (second compound 10 µM, first compound 0.0949 µM) 62.4% | viability, T/C (second compound 10 µM, first compound 0.3 µM) 67.7% | viability, T/C (second compound 10 µM, first compound 0.949 µM) 78.2% | viability, T/C (second compound 10 µM, first compound 3 µM) 51.1%
> 3000 nM: IC50 [1] | IC50 (curve of first compound, second compound 10 µM)
1270 nM: IC50 [2]
951 nM: IC50 [3]

Cn1ncnc1[C@H]1c2n[nH]c(=O)c3cc(F)cc(c23)N[C@@H]1c1ccc(F)cc1
inactive: viability, T/C (compound 0.000316 µM) 92.8% and 98.9% and 94.3% | viability, T/C (compound 0.001 µM) 93.2% and 97.5% and 95.5% | viability, T/C (compound 0.00316 µM) 83.8% and 99.4% and 81.2% | viability, T/C (compound 0.01 µM) 74.3% and 92% and 84.6% | viability, T/C (compound 0.0316 µM) 62.5% and 70.2% and 57.7% | viability, T/C (compound 0.1 µM) 35.8% and 69.9% and 42%
52.4 nM and > 100 nM and 58.6 nM: IC50 (curve of compound)
